Tests used:
[1] = system: S100A9-induced inflammatory mediator expression in keratinocytes; test: qRT-PCR of inflammatory mediator mRNA in keratinocytes treated with recombinant S100A9 or LPS; assay type: cell-based, mouse
Method: (§1) Primary cultures of mouse epidermal keratinocytes were prepared from ICR strain CD-1 outbred neonatal mice 1-3 days of age as described in detail in (Bollag W B, et al., J Invest Derm 100 240-246 (1993); Griner R, et al., J Biol Chem, 274 4663-4670 (1999)). All procedures were approved by the Institutional Animal Care and Use Committee. RAW264.7 cells, a mouse macrophage-derived cell line, were kindly provided by Drs. Qing Zhong and Carlos Isales (Augusta University) and were cultured in DMEM containing 10% fetal bovine serum and 1% penicillin and streptomycin.
(§2) Keratinocytes were treated with or without TPA or a synthetic triacylated lipoprotein (Pam3CSK4), a TLR1/TLR2 agonist, or recombinant S100A9 (R&D Systems) or HSPB4 (MyBiosoruce) as indicated, for 2 hours in the presence and absence of different concentrations of soy PG or dioleoylphosphatidylglycerol (DOPG). Cells were harvested and RNA isolated using PerfectPure RNA tissue kits (5 PRIME, Inc, Gaithersburg, Md., USA) as per the manufacturer's protocol. Following verification of RNA integrity using a Nanodrop instrument (NanoDrop Technologies, Wilmington, Del.), RNA was reverse-transcribed to cDNA with iScript cDNA synthesis kits (Bio-Rad Laboratories, Hercules, Calif., USA) and analyzed by real-time PCR using Taqman primer/probe sets from Applied Biosystems (Life Technologies, Grand Island, N.Y.). Reactions were performed using Fast Reagent PCR Master Mix (Applied Biosystems) and a StepOnePlus Real-Time PCR System (Applied Biosystems) as instructed by the manufacturer. Expression of genes of interest was determined using the delta-delta Ct method normalized to the expression of GAPDH as the endogenous housekeeping gene and expressed relative to the appropriate control group.

[2] = system: TPA-induced ear edema; test: Contact irritant (TPA) ear edema mouse in vivo model
Method: Experiments were performed as described in (27). Briefly, the ears of three to five male ICR CD-1 outbred mice [25-30 g; 5-6 weeks of age from Harlan Laboratories (Indianapolis, Ind.)] were treated with acetone or TPA (0.03% in acetone), and at 1 h and 4 h after TPA, the appropriate vehicle or the treatment in vehicle was applied to each ear. Ear thickness was measured using a caliper both before and at approximately 18-20 h after TPA treatment prior to sacrifice. After sacrifice, a circular ear punch biopsy (4 mm^2) was taken, weighed, and fixed in formalin. Histological evaluation included H&E staining and immunohistochemical staining for CD45 to quantify the number of infiltrating immune cells (see below).
(§3) Sections (10 μm) were cut from formalin-fixed paraffin-embedded ear biopsies and deparaffinized and rehydrated as described in (28). […] Multiple random sections (4 to 8 per mouse separately from the left and right ear) were counted by two independent observers in a blinded fashion, counts averaged to determine a value for each mouse ear and values statistically analyzed as described below.
Experiments were performed as described in Clark S P; Bollag W B; Westlund K N; Ma F; Falls G; Xie D; Johnson M; Isales C M; Bhattacharyya M H: Pine oil effects on chemical and thermal injury in mice and cultured mouse dorsal root ganglion neurons. […] Ear thickness was measured using a caliper both before and at approximately 18-20 h after TPA treatment prior to sacrifice. […] Histological evaluation included H&E staining and immunohistochemical staining for CD45 to quantify the number of infiltrating immune cells (see below).
as §3, with “(Voss K E et al., Arch. Dermatol. Res. 303 591-600 (2011)).” for “(28).”, “below. […]” for “below.”

[3] = system: S100A9-induced inflammatory mediator expression in RAW 264.7 macrophage cell line; test: qRT-PCR of inflammatory mediator mRNA in RAW 264.7 cells treated with recombinant S100A9; assay type: cell-based, mouse; details: 2 h, FIGS. 6A-6D
Method: as §1
as §2, with “Reactions were performed using Fast Reagent PCR Master Mix (Applied Biosystems) and a StepOnePlus Real-Time PCR System (Applied Biosystems) as instructed by the manufacturer. Expression of genes of interest was determined using the delta-delta Ct method normalized to the expression of GAPDH as the endogenous housekeeping gene and expressed relative to the appropriate control group.” left out

[4] = system: Pam3CSK4-induced inflammatory mediator expression in macrophage cell line RAW 264.7; test: qRT-PCR of inflammatory mediator mRNA in RAW 264.7 macrophage cell line treated with Pam3CSK4; assay type: cell-based, mouse; details: 2 h
Method: as §1, §2

[5] = system: HSPB4-induced inflammatory mediator expression in RAW cell line; test: qRT-PCR of inflammatory mediator mRNA in RAW 264.7 cells treated with recombinant HSPB4; assay type: cell-based, mouse; details: 2 h, FIGS. 7A-7D
Method: as §1
as §2, with “Reactions were performed using Fast Reagent PCR Master Mix (Applied Biosystems) and a StepOnePlus Real-Time PCR System (Applied Biosystems) as instructed by the manufacturer. Expression of genes of interest was determined using the delta-delta Ct method normalized to the expression of GAPDH as the endogenous housekeeping gene and expressed relative to the appropriate control group.” left out

[6] = system: NF-κB phosphorylation/activation in RAW264.7 cells; test: Western analysis of NF-κB phosphorylation/activation in RAW264.7 cells stimulated with Pam3CSK4; assay type: cell-based, mouse; details: 10 minutes, FIG. 9
Method: Membranes containing transferred proteins were blocked with 5% non-fat dry milk for at least 30 minutes before incubating with the appropriate primary antibodies, overnight, followed by washing and incubating with secondary antibodies for 1 h at room temperature. Immunoreactivity was visualized using infrared imaging on an Odyssey imaging system (LI-COR Biosciences, Lincoln, Nebr.).

[7] = system: TNFα protein secretion by RAW264.7 cells; test: TNFα protein secretion by ELISA in RAW264.7 culture supernatants; assay type: cell-based, mouse; details: 2 h; for TNFα protein secretion: DAMP alone (S100A9 2 μg/mL; HSPB4 0.1 or 1 μg/mL), FIGS. 8A-8B
Method: Cells were treated with recombinant S100A9 or recombinant HSPB4 as indicated and media collected. TNFα levels were determined in the supernatant using an ELISA kit (BD Biosciences) according to the manufacturer's instructions.
Mouse TNFα ELISA kits from BD Biosciences (San Jose, Calif.) were used. RAW264.7 cells were treated with or without recombinant S100A9 or HSPB4 in the presence and absence of DOPG for 2 hours. Cell culture supernatants were collected and stored at −80° C. and subjected to a single freeze-thaw cycle. The ELISA assay was performed according to the manufacturer's instructions with the optical density detected in each sample within 30 minutes, at a wavelength of 450 nm and corrected at 570 nm.

[8] = system: Pam3CSK4-induced inflammatory mediator expression in keratinocytes; test: qRT-PCR of inflammatory mediator mRNA in keratinocytes treated with Pam3CSK4 (TLR1/2 agonist); assay type: cell-based, mouse
Method: as §1
as §2, with “Reactions were performed using Fast Reagent PCR Master Mix (Applied Biosystems) and a StepOnePlus Real-Time PCR System (Applied Biosystems) as instructed by the manufacturer. Expression of genes of interest was determined using the delta-delta Ct method normalized to the expression of GAPDH as the endogenous housekeeping gene and expressed relative to the appropriate control group.” left out

[9] = co-treatment with DOPG 100 μg/mL
[10] = recombinant S100A9 alone, keratinocytes, data not shown

## phosphatidylglycerol [PG]
[1]; 100 μg/mL DOPG with 3 μg/mL recombinant S100A9, 2 h, FIG. 5A
  S100A9-induced expression of IL-1β: inhibited
[1]; 100 μg/mL DOPG with 3 μg/mL recombinant S100A9, 2 h, FIG. 5B
  S100A9-induced expression of IL-6: inhibited
[1]; 100 μg/mL DOPG with 3 μg/mL recombinant S100A9, 2 h, FIG. 5C
  S100A9-induced expression of TNFα: inhibited

## C=C1/C(=C\C=C2/CCC[C@]3(C)[C@@H]([C@H](C)CCCC(C)(C)O)CC[C@@H]23)C[C@@H](O)C[C@@H]1O [1,25-dihydroxyvitamin D3]
[2]; agent alone in 95% ethanol/5% water, applied 1 and 4 h after 0.03% TPA, FIGS. 10A-10C
  effect on ear edema: neither 1,25-dihydroxyvitamin D3 nor soy PG alone had a significant effect

## CCCCCCCC/C=C\CCCCCCCC(=O)OC[C@H](COP(=O)(O)OCC(O)CO)OC(=O)CCCCCCC/C=C\CCCCCCCC (some centres unmarked) [DOPG, dioleoylphosphatidylglycerol]
[3]; 100 μg/mL DOPG with 2 μg/mL S100A9
  S100A9-induced increase in inflammatory mediator expression: inhibit
[4]; DOPG 50 μg/mL
  Pam3CSK4-induced IL1α expression: inhibited
  Pam3CSK4-induced IL1β expression: inhibited
[4]; DOPG 50 or 100 μg/mL
  Pam3CSK4 induction of TNFα: no effect
[4]; [9]
  Pam3CSK4-induced IL1α mRNA level: inhibition
  Pam3CSK4-induced IL1β mRNA level: inhibition
  Pam3CSK4-induced IL6 mRNA level: inhibition
[5]; 100 μg/mL DOPG with 0.1 or 1 μg/mL HSPB4
  HSPB4 induction of inflammatory mediator expression: inhibited
[6]; co-treatment with 100 μg/mL DOPG, 2.5 μg/mL Pam3CSK4
  Pam3CSK4-increased phosphorylation/activation of NF-κB: inhibited
[7]; 100 μg/mL DOPG with 2 μg/mL S100A9, FIG. 8A
  S100A9-induced increase in TNFα protein secretion: inhibited
[7]; 100 μg/mL DOPG with 0.1 or 1 μg/mL HSPB4, FIG. 8B
  HSPB4-induced increase in TNFα protein secretion: inhibited
[8]; DOPG at either 50 or 100 μg/mL, Pam3CSK4 1 or 2.5 μg/mL, 2-hour incubation, FIGS. 1A-1D
  Pam3CSK4-induced increase in the expression of all cytokines tested (IL1α, IL1β, IL6, TNFα mRNA): significantly inhibited

## CCCCCCCCCCCCCC(=O)O[C@@H]1[C@@H](C)[C@@]2(O)[C@@H](C=C(CO)C[C@]3(O)C(=O)C(C)=C[C@@H]23)[C@@H]2C(C)(C)[C@]12OC(C)=O [TPA, 12-O-tetra-decanoylphorbol 13-acetate]
[2]; TPA alone, no subsequent treatment with vehicle, percent change from time 0
  increase in ear thickness: 147±16%
[2]; TPA alone, no subsequent treatment with vehicle, punch biopsy versus no-TPA mice
  increase in ear weight: 158±6%

## Pam3CSK4 [reference compound]
[4]; Pam3CSK4 1 or 2.5 μg/mL alone, FIGS. 3A-3D
  mRNA levels of IL1α, IL1β, IL6 and TNFα upon stimulation: up-regulated
[6]; 2.5 μg/mL Pam3CSK4 alone
  phosphorylation/activation of NF-κB (pNFκB/NFκB ratio): increased
[8]; agonist alone, in vitro
  inflammatory mediator expression in keratinocytes treated with TLR2 agonist: increased

B1: HSPB4: recombinant small heat shock protein, a DAMP shown to mediate sterile corneal inflammation (protein, UniProt P02489 1-173, looked up)
Alpha-crystallin A chain: MDVTIQHPWFKRTLGPFYPSRLFDQFFGEGLFEYDLLPFLSSTISPYYRQSLFRTVLDSGISEVRSDRDKFVIFLDVKHFSPEDLTVKVQDDFVEIHGKHNERQDDHGYISREFHRRYRLPSNVDQSALSCSLSADGMLTFCGPKIQTGLDATHAERAIPVSREEKPTSAPSS
[5]; 0.1 or 1 μg/mL recombinant HSPB4 alone
  inflammatory mediator expression (IL1α, IL1β, IL6, TNFα mRNA): stimulate
[7]
  TNFα protein secretion: induce

B2: S100A9: recombinant anti-microbial protein, a DAMP that activates TLR2 (as well as TLR4) (protein, UniProt P06702 1-114, looked up)
Protein S100-A9: MTCKMSQLERNIETIINTFHQYSVKLGHPDTLNQGEFKELVRKDLQNFLKKENKNEKVIEHIMEDLDTNADKQLSFEEFIMLMARLTWASHEKMHEGDEGPGHHHKPGLGEGTP
[1]; S100A9 alone, keratinocytes
  IL-1α expression: only minimally stimulated
[1]; recombinant S100A9 alone, 1 to 3 μg/mL, 2 h, FIG. 4B
  expression of IL1β: stimulated
[1]; recombinant S100A9 alone, 1 to 3 μg/mL, 2 h, FIG. 4C
  expression of IL6: stimulated
[1]; recombinant S100A9 alone, 1 to 3 μg/mL, 2 h, FIG. 4D
  expression of TNFα: stimulated
[1]; [10]
  expression of TLR1: induced
  expression of TLR2: induced
[3]; 2 μg/mL recombinant S100A9 alone
  inflammatory mediator expression (IL1α, IL1β, IL6, TNFα mRNA): increases
[7]
  TNFα protein secretion: induce

B3: denatured (heated) S100A9: heat-denatured recombinant S100A9 protein (protein, UniProt P06702 1-114, looked up)
Protein S100-A9: MTCKMSQLERNIETIINTFHQYSVKLGHPDTLNQGEFKELVRKDLQNFLKKENKNEKVIEHIMEDLDTNADKQLSFEEFIMLMARLTWASHEKMHEGDEGPGHHHKPGLGEGTP
modifications: heat-denatured
notes: heat-denatured recombinant S100A9 protein
[1]; denatured (heated) protein, keratinocytes
  stimulating inflammatory mediator mRNA levels, relative to native S100A9: significantly less effective
